Test results taken from publication PMC4578769, “Development of a Fluorescence-based Trypanosoma cruzi CYP51 Inhibition Assay for Effective Compound Triaging in Drug Discovery Programmes for Chagas Disease” (PLoS Neglected Tropical Diseases, 2015).
Like-named read-outs stand apart in the source and are kept apart here.

Experiments:
[1] = test system: T. cruzi; conditions: cited from earlier work; for re-emergence of parasitaemia once dosing has been completed: clinical trial, patients
[2] = target: T1, T. cruzi CYP51 (Tulahuen strain) (Trypanosoma cruzi, UniProt Q7Z1V1); test: biochemical; assay type: biochemical; conditions: for inhibition of T. cruzi CYP51 (in words): known CYP450 inhibitors
T1 construct: ompA leader (N); host or cells: E. coli JM109 (membrane fraction, bactosomes)
T1 sequence (Q7Z1V1 whole entry): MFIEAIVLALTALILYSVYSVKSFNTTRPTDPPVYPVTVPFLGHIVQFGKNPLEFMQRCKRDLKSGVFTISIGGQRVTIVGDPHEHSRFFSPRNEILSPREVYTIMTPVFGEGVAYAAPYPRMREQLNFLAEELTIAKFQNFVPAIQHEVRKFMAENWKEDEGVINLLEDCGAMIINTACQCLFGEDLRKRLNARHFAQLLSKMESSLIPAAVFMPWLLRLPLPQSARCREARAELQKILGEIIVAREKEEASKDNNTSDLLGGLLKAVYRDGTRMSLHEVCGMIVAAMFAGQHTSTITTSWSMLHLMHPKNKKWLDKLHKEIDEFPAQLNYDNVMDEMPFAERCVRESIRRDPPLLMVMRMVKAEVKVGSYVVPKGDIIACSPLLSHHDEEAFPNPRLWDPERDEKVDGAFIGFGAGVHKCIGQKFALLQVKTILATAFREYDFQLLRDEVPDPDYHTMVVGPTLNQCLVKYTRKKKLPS
Procedure: E. coli membrane fractions containing the T. cruzi CYP51 (Tulahuen strain) (Bactosomes) were provided by Cypex Ltd.
For each concentration of test compound the rate of fluorescence units per minute was calculated as a percentage of the average rate of the solvent only control wells.
The percentage of solvent control values was then plotted against the concentration range. Using the following 4 parameter fit equation, an IC50 value can be determined.
y=Range/1+(x/IC50)^s+Background
With kinetic parameters established, a microtitre-based assay to measure inhibition of recombinantly expressed T. cruzi CYP51 by test compounds was then implemented. […] Incubations containing 37 pmoles/mL of T. cruzi CYP51 in bactosomes, 100 μM BOMCC, 10, 3.3, 1.0, 0.33, 0.1, 0.033 or 0.01 μM test compound (2% v/v solvent) in 50 mM potassium phosphate buffer (pH 7.4), were pre-incubated at 37°C for 5 minutes. Upon addition of NADPH regenerating system (7.8 mg [[…]] glucose-6-phosphate, 1.7 mg [[…]] NADP, 6 units/mL glucose-6-phosphate dehydrogenase in 2% w/v sodium bicarbonate buffer) production of fluorescent metabolite CHC was measured (Exc 410 nm, Em 460 nm) at 1 minute intervals over a 10 minute period. Rates of metabolite production per minute were compared to uninhibited controls and plotted against test compound concentration to obtain an IC50.

Row | Structure (SMILES) | IC50 [2] [µM] | inhibition of T. cruzi CYP51 (in words) [2] | further results
1 | CCC(C)n1ncn(-c2ccc(N3CCN(c4ccc(OCC5COC(Cn6cncn6)(c6ccc(Cl)cc6Cl)O5)cc4)CC3)cc2)c1=O (centres unmarked) [Itraconazole] |  |  | curative activity in humans with chronic Chagas disease [1]: not demonstrated significant curative activity
2 | CC(=O)N1CCN(c2ccc(OCC3COC(Cn4ccnc4)(c4ccc(Cl)cc4Cl)O3)cc2)CC1 (centres unmarked) [Ketoconazole] |  |  | curative activity in humans with chronic Chagas disease [1]: not demonstrated significant curative activity
3 | Clc1ccc(COC(Cn2ccnc2)c2ccc(Cl)cc2Cl)c(Cl)c1 (centres unmarked) [Miconazole] | 0.057 |  | 
4 | CC[C@@H]([C@H](C)O)n1ncn(-c2ccc(N3CCN(c4ccc(OC[C@@H]5CO[C@@](Cn6cncn6)(c6ccc(F)cc6F)C5)cc4)CC3)cc2)c1=O [Posaconazole] |  |  | re-emergence of parasitaemia once dosing has been completed [1]: re-emergence of parasitaemia in two thirds of patients
5 | Clc1ccccc1CN1CCc2sccc2C1 [Ticlopidine] | > 8 | did not appear to inhibit | 
6 | Cn1cc[nH]c1=S [Methimazole] | > 8 |  | 
7 | C[C@@H](c1nc(-c2ccc(C#N)cc2)cs1)[C@](O)(Cn1cncn1)c1ccc(F)cc1F [ravuconazole] |  |  | re-emergence of parasitaemia once dosing has been completed [1]: re-emergence of parasitaemia in two thirds of patients
8 | Cc1nc2c([nH]1)c(=O)n(C)c(=O)n2Cc1ccco1 [Furafylline] | > 8 | did not appear to inhibit | 
9 | Nc1ccc(S(=O)(=O)Nc2ccnn2-c2ccccc2)cc1 [Sulphaphenazole] |  | did not appear to inhibit | IC50 ([2]; read-out: IC50 (μM), n = 3, 37 pmoles/mL T. cruzi CYP51 in bactosomes, 100 μM BOMCC, pH 7.4, 37°C, enzyme concentration defines minimum IC50 of approximately 0.02 μM): > 8 µM
10 | C=C[C@H]1C[N@@]2CC[C@H]1C[C@@H]2[C@@H](O)c1ccnc2ccc(OC)cc12 [Quinidine] | > 8 | did not appear to inhibit | 
